Assay results from PubChem BioAssay (NCI).
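Briefly, cells in 96-well plates were exposed to five compound concentrations for 48 h, and endpoints were estimated by linear interpolation. TGI: concentration producing complete growth inhibition.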

How the values were obtained:
Assay in all cases: growth of human tumour cells (NCI), 48 h
[1] = test system: 786-0 renal
[2] = test system: A498 renal
[3] = test system: A549 NSCLC
[4] = test system: ACHN renal
[5] = test system: BT-549 breast
[6] = test system: CAKI-1 renal
[7] = test system: CCRF-CEM leukemia
[8] = test system: COLO 205 colon
[9] = test system: DU-145 prostate
[10] = test system: EKVX NSCLC
[11] = test system: HCC-2998 colon
[12] = test system: HCT-116 colon
[13] = test system: HCT-15 colon
[14] = test system: HL-60(TB) leukemia
[15] = test system: HOP-62 NSCLC
[16] = test system: HS 578T breast
[17] = test system: HT29 colon
[18] = test system: IGROV1 ovarian
[19] = test system: K-562 leukemia
[20] = test system: KM12 colon
[21] = test system: LOX IMVI melanoma
[22] = test system: M14 melanoma
[23] = test system: MALME-3M melanoma
[24] = test system: MCF7 breast
[25] = test system: MDA-MB-231 breast
[26] = test system: MDA-MB-435
[27] = test system: MDA-N
[28] = test system: MOLT-4 leukemia
[29] = test system: NCI-H226 lung
[30] = test system: NCI-H23 lung
[31] = test system: NCI-H522 lung
[32] = test system: NCI/ADR-RES ovarian
[33] = test system: OVCAR-3 ovarian
[34] = test system: OVCAR-4 ovarian
[35] = test system: OVCAR-5 ovarian
[36] = test system: OVCAR-8 ovarian
[37] = test system: PC-3 prostate
[38] = test system: RPMI-8226 leukemia
[39] = test system: RXF 393 renal
[40] = test system: SF-268 CNS
[41] = test system: SF-295 CNS
[42] = test system: SF-539 CNS
[43] = test system: SK-MEL-2 melanoma
[44] = test system: SK-MEL-28 melanoma
[45] = test system: SK-MEL-5 melanoma
[46] = test system: SK-OV-3 ovarian
[47] = test system: SN12C renal
[48] = test system: SNB-19 CNS
[49] = test system: SNB-75 CNS
[50] = test system: SR leukemia
[51] = test system: SW-620 colon
[52] = test system: T-47D breast
[53] = test system: TK-10 renal
[54] = test system: U251 CNS
[55] = test system: UACC-257 melanoma
[56] = test system: UACC-62 melanoma
[57] = test system: UO-31 renal
[58] = test system: HOP-92 NSCLC
[59] = test system: NCI-H460 lung

## COc1ccc2cc1Oc1ccc(cc1)C(Sc1ccccc1)CCOC(=O)CC2 (stereo not drawn)
[1]
  TGI: > 100 µM
[2]
  TGI: > 100 µM
[3]
  TGI: > 100 µM
[4]
  TGI: > 100 µM
[5]
  TGI: > 100 µM
[6]
  TGI: > 100 µM
[7]
  TGI: > 100 µM
[8]
  TGI: > 100 µM
[9]
  TGI: > 100 µM
[10]
  TGI: > 100 µM
[11]
  TGI: > 100 µM
[12]
  TGI: > 100 µM
[13]
  TGI: > 100 µM
[14]
  TGI: > 100 µM
[15]
  TGI: > 100 µM
[16]
  TGI: > 100 µM
[17]
  TGI: > 100 µM
[18]
  TGI: > 100 µM
[19]
  TGI: > 100 µM
[20]
  TGI: > 100 µM
[21]
  TGI: > 100 µM
[22]
  TGI: > 100 µM
[23]
  TGI: > 100 µM
[24]
  TGI: > 100 µM
[25]
  TGI: > 100 µM
[26]
  TGI: > 100 µM
[27]
  TGI: > 100 µM
[28]
  TGI: > 100 µM
[29]
  TGI: > 100 µM
[30]
  TGI: > 100 µM
[31]
  TGI: > 100 µM
[32]
  TGI: > 100 µM
[33]
  TGI: > 100 µM
[34]
  TGI: > 100 µM
[35]
  TGI: > 100 µM
[36]
  TGI: > 100 µM
[37]
  TGI: > 100 µM
[38]
  TGI: > 100 µM
[39]
  TGI: > 100 µM
[40]
  TGI: > 100 µM
[41]
  TGI: > 100 µM
[42]
  TGI: > 100 µM
[43]
  TGI: > 100 µM
[44]
  TGI: > 100 µM
[45]
  TGI: > 100 µM
[46]
  TGI: > 100 µM
[47]
  TGI: > 100 µM
[48]
  TGI: > 100 µM
[49]
  TGI: > 100 µM
[50]
  TGI: > 100 µM
[51]
  TGI: > 100 µM
[52]
  TGI: > 100 µM
[53]
  TGI: > 100 µM
[54]
  TGI: > 100 µM
[55]
  TGI: > 100 µM
[56]
  TGI: > 100 µM
[57]
  TGI: > 100 µM

## Cc1c(C(=O)N2CCN(c3ccc([N+](=O)[O-])cc3)CC2)[n+](=O)c2cc(Cl)c(Cl)cc2n1[O-]
[1]
  TGI: 30.8 µM
[2]
  TGI: 23.1 µM
[3]
  TGI: 48.5 µM
[4]
  TGI: 26.3 µM
[5]
  TGI: 33 µM
[6]
  TGI: 64.3 µM
[7]
  TGI: > 100 µM
[8]
  TGI: > 100 µM
[9]
  TGI: 43.9 µM
[10]
  TGI: 41.1 µM
[11]
  TGI: 33.2 µM
[12]
  TGI: 40.5 µM
[13]
  TGI: 36.2 µM
[14]
  TGI: > 100 µM
[15]
  TGI: 38.2 µM
[58]
  TGI: 34.4 µM
[16]
  TGI: 93.6 µM
[17]
  TGI: 90.5 µM
[18]
  TGI: 42.7 µM
[19]
  TGI: > 100 µM
[20]
  TGI: > 100 µM
[21]
  TGI: > 100 µM
[22]
  TGI: > 100 µM
[23]
  TGI: 48.4 µM
[24]
  TGI: 33.2 µM
[25]
  TGI: 46.7 µM
[26]
  TGI: > 100 µM
[27]
  TGI: > 100 µM
[28]
  TGI: > 100 µM
[30]
  TGI: 32 µM
[59]
  TGI: 56.7 µM
[31]
  TGI: 32.7 µM
[32]
  TGI: 32.7 µM
[33]
  TGI: 43.2 µM
[34]
  TGI: 29.5 µM
[35]
  TGI: 44 µM
[36]
  TGI: 33 µM
[37]
  TGI: 45 µM
[38]
  TGI: 63.4 µM
[39]
  TGI: 27.5 µM
[40]
  TGI: 35.2 µM
[41]
  TGI: 34.2 µM
[42]
  TGI: 32.6 µM
[43]
  TGI: > 100 µM
[44]
  TGI: 73.4 µM
[45]
  TGI: 24.6 µM
[46]
  TGI: 29.5 µM
[47]
  TGI: 38.2 µM
[48]
  TGI: 42.1 µM
[50]
  TGI: 61.2 µM
[51]
  TGI: > 100 µM
[52]
  TGI: 45 µM
[53]
  TGI: 39.3 µM
[54]
  TGI: 61.5 µM
[55]
  TGI: > 100 µM
[56]
  TGI: 34 µM
